Experimental data from patent US8450272B2, “Combinations of somatostatin-analogs with different selectivity for human somatostatin receptor subtypes” (priority 2006, dated 2013).
Numbered stars: 1 amine (or outer) side, 2 acyl side, 3 side chain; on linkers, the order of the positions; unused ones are H or OH. Square brackets hold non-standard residues; d marks the D form. Side chains are listed from the residue outwards. Peptide text beside a SMILES is read from it. * marks the point of attachment. ξ: configuration not given here. Ethylenediamine = C(CN[*:2])N[*:1]; Hyp = O=C(O)[C@@H]1C[C@@H](O)CN1; ξPhg = NC(C(=O)O)c1ccccc1; CO = O=C([*:1])[*:2]; Bn = c1ccc(C*)cc1

Key:
[1] = Short term experiment: acute s.c. injection, blood glucose AUC; format: in vivo, adult male Lewis rats; conditions: 10 μg/kg s.c., rats, within 1 hour after injection
Experimental: Effect of an acute s.c. injection of octreotide and pasireotide in rats (1 and 10 μg/kg) and different combinations thereof on the accumulated glucose levels between 0 and 1 hour after the injection (n=6 animals per group).
In the short term experiment octreotide and pasireotide and their combination were s.c. injected in rats in 1 ml saline. Blood samples were taken by sublingual bleeding the rats 15 min, 30 min, 1 h, 3 h, 6 h and 8 h after the injection and blood glucose was determined using ACCU-Chek Compact (Roche), which was newly calibrated before each measurement. In order to determine the overall effect of the treatment on glucose the area under the curve (AUC) was determined using GraphPad Prizm. 4.0.

[2] = Long-term s.c. infusion by osmotic minipumps, plasma glucose concentration; format: in vivo, adult male Lewis rats; conditions: 3 and 10 μg/kg/h alone, rats
Experimental: Effect of long term application of octreotide and pasireotide alone and in combination on plasma glucose concentration in rats. Compounds were continuously infused by osmotic minipumps at 3 and 10 μg/kg/h for the single compounds and at 1.5, 5 and 10 μg/kg/h for the combinations. Plasma glucose levels were determined one day before and 1, 7 and 14 days after minipumps implantation.
In the long-term experiments octreotide and pasireotide and their combination were s.c. infused in rats using osmotic minipumps (Alzet model: 2002). Blood samples were taken by sublingual bleeding on the day before minipump implantation and after 1, 7 and 14 days.

[3] = Previous experiments: glucose increase after pasireotide injection; format: in vivo; conditions: rats
Experimental: Based on previous experiments in rats it was known that acute injection of pasireotide causes an increase in glucose, which was rapid in onset (within 30 min after injection), reached its peak between 1 and 3 h and returned to baseline values after 6-8 h. […] Therefore only moderate increases in glucose have been observed after repeated or long-term treatment with pasireotide mainly on the first day(s) of treatment. […] In order to investigate the efficacy of both compounds and their combination on a relevant parameter in rats plasma GH and IGF-1 levels as well as body weight were determined in rats within 14 days of continuous infusion with the compounds. […] Due to the known pulsatile release pattern of GH and the low sensitivity of the available GH RIA, levels of IGF-1 and body weight (BW) are more reliable parameters to determine efficacy of a compound on the GH/IGF-1 system. GH and IGF-1 are both growth factors which are responsible for growth of animals and humans and lack of these factors result in growth retardation in animals which are still growing (like in rats). […] Unlike the rapid changes in glucose levels, changes in IGF-1 levels are only observed after 1-2 days of treatment with somatostatin analogues.

[4] = in vivo; cited from earlier work

Structure (SMILES)	change of AUC glucose levels vs. control [1]	plasma glucose ([2]; continuous infusion for 14 days)	plasma level of glucose ([2]; continuous infusion, day 1 and 7 of treatment)	onset of increase in glucose after injection ([3]; acute injection)	return of glucose to baseline values ([3]; acute injection)	glucose response on repeated or long term injections ([3]; repeated or long term injections)	t1/2 [4]
C[C@@H](O)[C@@H]1NC(=O)[C@H](CCCCN)NC(=O)[C@@H](Cc2c[nH]c3ccccc23)NC(=O)[C@H](Cc2ccccc2)NC(=O)[C@@H](NC(=O)[C@H](N)Cc2ccccc2)CSSC[C@@H](C(=O)N[C@H](CO)[C@@H](C)O)NC1=O [octreotide]	no effect	no effect or caused a small but significant reduction	–	–	–	–	–
NCCCC[C@@H]1NC(=O)[C@@H](Cc2c[nH]c3ccccc23)NC(=O)C(c2ccccc2)NC(=O)[C@@H]2C[C@@H](OC(=O)NCCN)CN2C(=O)[C@H](Cc2ccccc2)NC(=O)[C@H](Cc2ccc(OCc3ccccc3)cc2)NC1=O (stereo partly drawn) [pasireotide, cyclo[{4-(NH2—C2H4—NH—CO—O—)Pro}-Phg-DTrp-Lys-Tyr(4-Bzl)-Phe]] (cyclo(F[Hyp]([CO-Ethylenediamine])[ξPhg][dW]KY(Bn)))	56%	–	slightly, but significantly increased	≤ 30 min	6 to 8 h	strong tachyphylaxis	11 h
